Test results taken from patent US20050203013A1, “Methods for inhibiting vascular permeability” (priority 2002, published 2005).
Like-named read-outs stand apart in the source and are kept apart here.

Columns and labels:
Water solubility = format: physicochemical
Protocol: To evaluate the biological activity of HPMA-TNP-470, the following assays were performed: […]

BCE cells = experiment: Junction protein staining of BCE cells treated with TNP-470; format: cell-based, Bovine; conditions: 3 days in culture, stimulated by VEGF or PAF
Protocol: BCE cells were grown on a coverslip glass in a 24-well plate (200,000 cells/well) in DMEM+10% BCS+3 ng/ml bFGF. Cells were treated with TNP-470 for 3 days in culture. Cells were stimulated with VEGF (5 ng/ml) or PAF (100 nM) for 20 min. Cells were stained for occludin, claudin, ZO-1, beta-catenin and VE-cadherin with fluorescent antibodies.

[1] = tested on: vesiculo-vacuolar organelles and inter-endothelial junctions; experiment: Electron microscopy of skin venules with ferritin tracer; format: in vivo, SCID mice; conditions: uninjected skin or skin injected with buffer
Protocol: SCID mice were treated for three days with TNP-470 (30 mg/kg) or saline, following which anionic Ferritin tracer was injected i.v. into mice and 50 μl of human VEGF165 (1 ng/μl), or 50 μl of PBS were injected intradermally into pre-shaved flank skin. After 15 min, animals were euthanized by cervical dislocation. Skin test and control sites were excised and fixed by immersion for 4 hours in freshly prepared 2.0% paraformaldehyde-2.5% glutaraldehyde-0.025% calcium chloride in 0.1 M sodium cacodylate buffer, pH 7.4. Tissues were postfixed for 2 h in 1.5% sym-collidine-buffered osmium tetroxide, stained en bloc with uranyl acetate, dehydrated in a graded series of alcohols, and embedded in Spurr resin as previously described (Dvorak et al., 1996; Feng et al., 1996). Thin sections were then cut, collected on carbon-Formvar-coated single slot grids, and viewed in an electron microscope (CM10; Philips, Eindhoven, The Netherlands).

chick aortic rings = experiment: Chick aortic ring assay; format: cell-based
Protocol: Aortic arches were dissected from day-14 chick embryos and cut into cross-sectional fragments, everted to expose the endothelium, and explanted in Matrigel. When cultured in serum-free MCDB-131 medium, endothelial cells outgrow and three-dimensional vascular channel formation occurred within […]. Free and conjugated TNP-470 were added to the culture.

[2] = tested on: LLC, A2058, MCF-7, MDA-MB-231, BXPC3, U87 tumors; conditions: cited from earlier work
U87 glioblastoma cells = experiment: Cell proliferation assay, U87; format: cell-based, human; conditions: 72 hours
Protocol: (§1) HMVEC-d cells were trypsinized (0.05% trypsin) and resuspended (15,000 cells/ml) in EBM-2 supplemented with 5% fetal bovine serum (FBS), plated onto gelatinized 24-well culture plates (0.5 ml/well), and incubated for 24 hours (37° C., 5% CO2). The media was replaced with 0.5 ml of complete media (serum and growth factors; EGM-2 MV), and test substances were applied. Cells were challenged with free or conjugated TNP-470 (0.01 pg/ml to 1 mg/ml TNP-470-equivalent concentration). Control cells were grown with or without growth factors. U87 glioblastoma cells were washed with PBS, trypsinized and resuspended (5,000 cells/ml) in DMEM supplemented with 10% FBS, plated onto 24-well culture plates (0.5 ml/well), and incubated for 24 hours (37° C., 5% CO2). The media was replaced with 0.5 ml of DMEM and 10% FBS, and the test sample applied. Cells were challenged with free or conjugated TNP-470 (0.01 pg/ml to 1 mg/ml TNP-470-equivalent concentration). Control cells were grown with or without 10% FBS. Both cell types were incubated for 72 hours, followed by trypsinization, resuspension in Hematall (Fisher Scientific, Pittsburgh, Pa.), and counted in a Coulter counter.

[3] = tested on: VEGF-induced skin permeability; experiment: Modified Miles assay with VEGF dose response; format: in vivo, C57 mice; conditions: 30 mg/kg/d s.c. for 3 days, intradermal VEGF
Excerpt: TNP-470, HPMA copolymer-TNP-470 and angiostatin all inhibited Evan's blue extravasation into A2058 melanoma (P<0.03 versus control), murine Lewis lung carcinoma (P<0.05), MCF-7 breast carcinoma (P<0.04), MDA-MB-231 breast carcinoma (P<0.05) and BXPC3 pancreatic adenocarcinoma (P<0.04) by 40-90% compared to control tumors treated with saline (FIG. 16B). […] In order to test the effect of VEGF secreted from the tumor and the ability of TNP-470 to inhibit the permeability induced by such amount of VEGF, a modified Miles assay using a dose response of VEGF was used. Groups of 8 week old C57 mice were treated with TNP-470 (30 mg/kg/d s.c. for 3 days) or with saline. Then we injected 100 μl 1% Evan's Blue i.v. and after 10 min injected VEGF intradermally at different concentrations. We collected skin punch biopsies and extracted dye with formamide at RT over 5 days and read the extracts at 620 nm (FIG. 16C).

HMVEC-d cells = experiment: Cell proliferation assay, HMVEC-d; format: cell-based, Human
Protocol: as §1

liver regeneration = experiment: Liver regeneration after 2/3 hepatectomy; format: in vivo, C57 black male mice; conditions: post-operative day 8
Protocol: C57 black male mice underwent a ⅔ hepatectomy through a midline incision after general anesthesia with isoflourane. Free and conjugated TNP-470 (30 mg/kg) was given s.c. every other day for 8 days beginning on the day of surgery. The liver was harvested on the 8th day, weighed and analyzed for histology.

[4] = tested on: A2058 human melanoma tumor vessel permeability; experiment: Miles assay on tumor-bearing mice (Example 2); format: in vivo, SCID mice; conditions: 30 mg/kg/day for three days
Protocol: One of the problems with angiogenesis-dependent diseases is increased vessel permeability (due to high levels of VPF) which results in edema and loss of proteins. A decrease in vessel permeability is beneficial in those diseases. We have found, using the Miles assay ([…], et al., Cancer Res, 56:172-181 (1996)), that free and bound TNP-470 block permeability. Briefly, a dye, Evans Blue (1% in PBS), was injected i.v. to anesthesized mice. After 10 min, human recombinant VEGF165 (50 ng/50 μl) was injected intradermally into the back skin. Leakage of protein-bound dye was detected as blue spots on the underside of the back skin surrounding the injection site. After 20 min mice were euthanized. Then, the skin was excised, left in formamide for 5 days to be extracted and the solution read at 620 nm. Putative angiogenesis inhibitors such as free and conjugated TNP-470 were injected daily 3 days (30 mg/kg/day) prior to the VEGF challenge. The same was repeated on tumor-bearing mice to evaluate the effect of angiogenesis inhibitors on tumor vessel permeability.

For `CO[C@@H]1[C@H](OC(=O)NC(=O)CCl)CC[C@]2(CO2)[C@H]1[C@@]1(C)O[C@@H]1CC=C(C)C` [TNP-470], the water solubility (Water solubility) was “not water-soluble”, the “effect on occludin, claudin, ZO-1, beta-catenin or VE-cadherin” value (BCE cells) was “did not see any significant and reproducible effect” and the “extravasation of circulating ferritin via VVOs” value [1] was “reduced”. The “concentration showing efficacy (reduced number and length of vascular sprouts)” value (chick aortic rings) was 50 pg/mL, the “concentration that completely prevented outgrowth” value (chick aortic rings) was 100 pg/mL and the tumor growth inhibition ([2]; U87 glioblastoma in mice) was 95%. For the same compound, the tumor growth inhibition ([2]; all tumor models studied) was 60-95%, the “concentration inhibiting serum-induced proliferation (cytostatic effect)” value (U87 glioblastoma cells; U87 glioblastoma cells) was “higher than 10 ng/ml” and the cytotoxic concentration (U87 glioblastoma cells; U87 tumor cells) was “higher than 100 μg/ml”. For the same compound, the “VEGF dose up to which permeability was inhibited” value [3] was “up to 25 ng”, the “endothelial cell vs tumor cell inhibitory concentration difference” value (HMVEC-d cells; HMVEC-d vs U87) was 4 orders of magnitude and the “concentration inhibiting growth factor-induced proliferation without cytotoxicity” value (HMVEC-d cells; HMVEC-d, 72 hours) was no less than 1 pg/mL. For the same compound, the cytotoxic concentration (HMVEC-d cells; HMVEC-d, 72 hours) was “higher than 1 μg/ml”, the average liver size (liver regeneration) was 0.7 g and the tumor vessel permeability [4] was “decreased”.
